# Laboratory results taken from PubChem BioAssay (NCI).
#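 Values below derive from 48-hour exposures of cells grown in 96-well plates, with endpoints linearly interpolated between the two concentrations bracketing the appropriate inhibition level. GI50: concentration for 50% inhibition of growth. Definition used: TGI = concentration required for complete inhibition of growth.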
# What was measured:
# Experiment in all cases: DTP human tumour cell line panel, 48 h
# [1] = test system: RXF 393 renal
# [2] = test system: 786-0 renal
# [3] = test system: MOLT-4 leukemia
# [4] = test system: M14 melanoma
# [5] = test system: BT-549 breast
# [6] = test system: HOP-92 NSCLC
# [7] = test system: HS 578T breast
# [8] = test system: EKVX NSCLC
# [9] = test system: TK-10 renal
# [10] = test system: OVCAR-3 ovarian
SMILES,GI50 [1] [µM],TGI [1] [µM],GI50 [2] [µM],TGI [2] [µM],GI50 [3] [µM],TGI [3] [µM],GI50 [4] [µM],TGI [4] [µM],GI50 [5] [µM],TGI [5] [µM],GI50 [6] [µM],TGI [6] [µM],GI50 [7] [µM],TGI [7] [µM],GI50 [8] [µM],TGI [8] [µM],GI50 [9] [µM],TGI [9] [µM],TGI [10] [µM],GI50 [10] [µM]
O=C(CN1CCN(c2ccccn2)CC1)Nc1ccc(Cl)cc1C(=O)c1ccccc1Cl,> 100,> 100,1.57,> 100,5.49,> 100,50.9,> 100,81.4,> 100,2.52,53.7,> 100,> 100,45.4,> 100,> 100,> 100,,
Nc1ncnc2c1ncn2C1OC(C(=O)OCCO)C(O)C1O (stereo not drawn),,> 100,,> 100,,> 100,,> 100,,> 100,,> 100,,> 100,,> 100,,> 100,> 100,
C[C@H](c1ccc(Cl)cc1[N+](=O)[O-])N1C(=O)c2cc(I)ccc2NC(=O)[C@H]1c1ccc(Cl)cc1,9.07,> 100,> 100,> 100,8.76,> 100,85.4,> 100,> 100,> 100,2.79,> 100,6.5,> 100,4.98,> 100,> 100,> 100,> 100,8.83
O=C(Nc1ccc(N2CCNCC2)cn1)c1[nH]ncc1Nc1ncnc2sc3c(c12)CCC3,,,1.41,2.98,2.54,19.8,1.49,3.22,14.1,38.6,4.69,> 100,3.38,14.6,1.99,5.77,1.77,3.36,3.62,1.84
O=C(O)CSc1nnc2c3ccccc3c3ccccc3c2n1,,> 100,,> 100,,,,> 100,,> 100,,> 100,,> 100,,> 100,,> 100,> 100,
COc1cc[nH]c1/C=C1\C(=O)Nc2ccc([N+](=O)[O-])c(N3CC[C@@H](O)C3)c21,0.0566,0.146,0.186,3.56,0.142,2.4,0.399,1.13,0.328,1.59,0.544,2.47,0.353,6.33,,,0.512,1.61,1.59,0.131
CC1SC(c2cccc(Cl)c2)N(NC(=O)C(O)c2ccccc2)C1=O (stereo not drawn),80.6,> 100,> 100,> 100,> 100,> 100,> 100,> 100,> 100,> 100,> 100,> 100,> 100,> 100,> 100,> 100,> 100,> 100,> 100,> 100
